Measurements taken from patent publication US9371527B2, “Compositions and methods related to protein displacement therapy for myotonic distrophy” (University of Rochester, priority 2006, dated 2016).

Legend:
[1] = tested on: SERCA1 alternative splicing; assay: RT-PCR of SERCA1 alternative splicing after CAG25 morpholino; format: in vivo, HSA^LR transgenic mice; conditions: 3 weeks following CAG25 injection, tibialis anterior, 4 mice
Source text: Morpholino-treated muscle is indicated by “+”. Results from tibialis anterior in the opposite hindlimb, injected with saline alone, are indicated by “−”. The side of morpholino injection was randomly determined, and this assignment remained blinded until after the splicing analysis was completed. Het. dupl. indicates a heteroduplex PCR product.

[2] = tested on: MBNL1 protein in ribonuclear foci; assay: MBNL1 immunofluorescence after CAG25 morpholino injection into tibialis anterior; format: in vivo, HSA^LR transgenic mice; conditions: intramuscular injection + electroporation, vs saline contralateral
Description: The morpholino was compromised entirely of CAG repeats and was 25 nucleotides in length (CAG25). CAG25 morpholino dissolved in phosphate buffered saline was injected into tibialis anterior muscle of HSA^LR transgenic mice, followed by electroporation to facilitate entry into muscle cells. The contralateral tibialis anterior muscle was injected with saline alone, followed by electroporation. The distribution of MBNL1 in tibialis anterior was determined by immunofluorescence with anti-MBNL1 antibody A2764. In muscle injected with saline, MBNL1 was sequestered in ribonuclear foci (nuclei are counterstained with DAPI).

HSA^LR transgenic mice = assay: Electromyography of myotonia after CAG25 morpholino; format: in vivo; conditions: p<0.001
Source text: FIG. 17 uses Electromyography to show the improvement of myotonia at 3 and 6 weeks after injection of CAG25 morpholino into tibialis anterior of HSA^LR transgenic mice. Myotonia is a state of muscle hyperexcitability in which muscle fibers display repetitive action potentials. Myotonia in the HSA^LR transgenic mouse model of myotonic dystrophy is caused by abnormal regulation of alternative splicing for ClC-1 and subsequent reduction of chloride ion channels in muscle fibers. A parallel abnormality of ClC-1 alternative splicing exists in human myotonic dystrophy. […] For each mouse, CAG25 morpholino dissolved in saline was injected into tibialis anterior muscle of one hindlimb, whereas saline alone was injected into tibialis anterior on the opposite side. The side of morpholino injection was randomly assigned. Electromyography was performed by a blinded examiner Severity of myotonia was graded on a 4 point scale: 0=no myotonic, 1=occasional myotonic discharge (fewer than 25% of needle insertions), 2=abundant myotonic discharges (25-75% of needle insertions), and 3=florid myotonia (myotonic discharges in nearly every needle insertion).

[3] = tested on: recombinant MBNL1 protein with (CUG)109 RNA; assay: Gel shift assay of MBNL1 with (CUG)109 RNA in presence of CAG25 morpholino; format: binding, human; conditions: increasing amounts of CAG25 morpholino
Source text: Interaction of recombinant MBNL1 protein with (CUG)109 RNA was examined by gel shift assay, in the presence of increasing amounts of CAG25 morpholino.
Also disclosed herein are methods involving the interaction of soluble, fluorescently-labeled MBNL1 protein with poly(CUG)^109 tethered at the surface of a microtiter plate. Different commercial microtiter plates for capacity to bind in vitro transcribed poly(CUG)^109 and background activity (non-specific binding of labeled MBNL1). For tethering poly(CUG)^109 to plates, a “capture” oligodeoxynucleotide (ODN) complementary to the A-rich 3′ terminus of the poly(CUG)^109 transcript, labeled either with biotin or a reactive group at the 5′ end for attachment to the plate (shown in FIG. 3C in the case of biotin) was used. […] Next, the concentration of capture ODN that saturates binding sites (12.5 pmoles/100 μl/well) and the concentration of poly(CUG)^109 that saturates the capture ODN (of 5 pmole added per well, 0.5 pmole was bound to capture ODN) were determined. Additionally, conditions for fluorescence labeling of MBNL1 protein via conjugation between primary amines on protein and fluorescein-EX dyes (Molecular Probes) were determined. The detection threshold and range of linearity was determined for labeled protein in gels and microplates (FIG. 2B). […]

[4] = tested on: ClC-1 exon 7a alternative splicing; assay: RT-PCR of ClC-1 alternative splicing after CAG25 morpholino; format: in vivo, HSA^LR transgenic mice; conditions: tibialis anterior, vs saline contralateral
Source text: Adult wild-type (WT) mice show low levels of exon 7a inclusion. In HSA^LR transgenic mice, the fraction of ClC-1 splice products that include exon 7a is increased. Inclusion of exon 7a causes a frame shift and creates a premature termination codon that truncates most of the ClC-1 coding sequence. Of note, transcripts that include exon 7a have accelerated degradation via nonsense mediated decay, therefore they are underrepresented at steady state and on this gel. The higher bands on the gel are other alternative splice products, as shown (Mankodi et al, Molecular Cell 10:35-44, 2002.) In HSA^LR transgenic mice, injection of CAG morpholino into tibialis anterior improved the defect of ClC-1 alternative splicing. Morpholino-treated muscle is indicated by “+”. Results from tibialis anterior in the opposite hindlimb, injected with saline alone, are indicated by “−”.

[5] = tested on: ZASP alternative splicing; assay: RT-PCR of ZASP alternative splicing after CAG25 morpholino; format: in vivo, HSA^LR transgenic mice; conditions: 3 weeks following CAG25 injection, tibialis anterior
Source text: Morpholino-treated muscle is indicated by “+”. Results from tibialis anterior in the opposite hindlimb, injected with saline alone, are indicated by “−”. The side of morpholino injection was randomly determined, and this assignment remained blinded until after the splicing analysis was completed.

ClC-1 chloride channel = assay: ClC-1 immunofluorescence after CAG25 morpholino; format: in vivo, HSA^LR transgenic mice; conditions: 3 weeks following injection
Source text: Immunofluorescence for ClC-1 chloride channel is shown in sections of tibialis anterior muscle from HSA^LR transgenic mice. Muscle fibers show mosaic expression of ClC-1 in HSA^LR muscle injected with saline. Some of these fibers are completely lacking in ClC-1 protein.

[6] = tested on: interaction of (CUG)109 RNA with MBNL1 protein; assay: Non-denaturing gel: PNA-CAG displacement of MBNL1 from (CUG)109 RNA; format: binding; conditions: PNA 4-0.25 μM, then MBNL1 200 nM 30 min
Description: (§1) FIGS. 30A and 30B show protein displacement therapy with peptide nucleic acid (PNA) oligomers composed of CAG repeats.
(§2) Previously it was shown that expanded CUG repeat RNA forms stable hairpin structures (Tian B, et al. RNA 2000; 6:79-87). […] This transcript was incubated 30 min with different concentrations (8, 4, 2, 1, 0.5, 0.25 μM) of PNAs containing different length of CAG repeat sequence (PNA-CAG-6, Nterm-CAGCAG; PNA-CAG-9, Nterm-CAGCAGCAG; PNA-CAG-12, Nterm-CAGCAGCAGCAG (SEQ ID NO: 14); or PNA-CAG-15, Nterm-CAGCAGCAGCAGCAG) (SEQ ID NO: 15). FIG. 30B provides a variation including 5 PNA concentrations (4, 2, 1, 0.5, 0.25 μM) and after additional 30 min incubation step with recombinant MBNL1 (200 nM). Lane “C” in each panel is a control showing migration of fluorescein-labeled (CUG)109 transcript without PNA or MBNL1. Rapid migration of this transcript is caused by hairpin formation. […] Lanes “C+” in panel “B” show controls that contain (CUG)109 transcript and MBNL1 protein without PNA. These lanes show diffuse smear of (CUG)109 transcript, due to formation of heterogenous high molecular weight RNA-protein complexes. Addition of PNA displaces the MBNL1 protein from expanded CUG repeat RNA, disrupting these complexes and reconstituting a sharp band of (CUG)109 transcript. […]

(CUG)109 hairpins = assay: Non-denaturing gel: PNA-CAG interaction with fluorescein-labeled (CUG)109 transcript; format: binding; conditions: (CUG)109 10 nM, PNA 8-0.25 μM, 30 min
Description: as §1, §2

[7] = molecular target: T1, interaction of recombinant MBNL1 protein with (CUG)109 RNA (Homo sapiens, UniProt Q9NR56); assay: Filter binding screening assay for inhibitors of MBNL1-(CUG)109 RNA interaction; conditions: compound+(CUG)109 RNA 5 minutes, then recombinant MBNL1 15 minutes, among 9 aminoglycoside compounds tested
T1 construct: GST (with Prescission protease cleavage site) (N); made in house; host or cells: E. coli BL21(DE3)
T1 sequence (Q9NR56 1-382 isoform Q9NR56-5): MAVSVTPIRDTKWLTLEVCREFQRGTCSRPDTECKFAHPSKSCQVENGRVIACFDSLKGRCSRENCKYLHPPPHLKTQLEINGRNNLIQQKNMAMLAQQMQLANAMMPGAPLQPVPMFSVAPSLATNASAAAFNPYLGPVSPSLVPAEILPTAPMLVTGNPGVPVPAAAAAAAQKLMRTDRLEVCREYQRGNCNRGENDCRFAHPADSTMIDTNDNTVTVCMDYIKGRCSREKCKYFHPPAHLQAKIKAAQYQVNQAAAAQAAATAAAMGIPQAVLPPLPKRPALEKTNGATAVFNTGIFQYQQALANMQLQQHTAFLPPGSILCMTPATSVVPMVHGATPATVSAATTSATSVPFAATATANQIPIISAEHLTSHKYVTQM
Description: The order of addition was compound+(CUG)109 RNA (incubate 5 minutes), followed by recombinant MBNL1 protein (15 minute incubation), followed by application to filter.
Next, optimal conditions were defined (ionic-strength, monovalent cations, Mg^++ and other additions, temperature) for MBNL1-poly(CUG)^109 binding in solution. All forms of recombinant MBNL1 that were tested (GST fused or cleaved, full-length or truncation of C terminal hydrophobic region, 41 or 42 kD isoform) bind to poly(CUG)^109 at low protein concentration (FIG. 3, Kd values ˜10 nM), as determined by nitrocellulose filter binding assays. In this assay, nonspecific binding of labeled RNA to nitrocellulose was very low (<0.2% of maximal positive signal). As described below, disclosed herein are methods comprising a non-radioactive microtiter plate filter binding assay similar to the one used to examine binding activities of different forms of recombinant MBNL1 in FIG. 3.
The two components of this assay, fluorescence-labeled poly(CUG)^109 (FIG. 2B) and recombinant MBNL1 (FIG. 2A), have been developed and optimal conditions for MBNL1 binding to poly(CUG)^exp have been defined (50 mM Tris pH 8.0, 50 mM NaCl, 50 mM KCl, 1 mM Mg^++, 0.1 mM DTT) (see Preliminary Studies). Pilot binding assays have been carried out using nitrocellulose filters (FIG. 3A). […]

[8] = molecular target: T2, interaction of CUG repeat RNA with recombinant MBNL1 protein (Homo sapiens, UniProt Q9NR56); assay: Fluorescence anisotropy assay for inhibitors of CUG repeat RNA-MBNL1 interaction; format: binding; conditions: (CUG)36 transcript 2 nM, aminoglycoside 10 or 50 μM, MBNL1 100 nM
T2 construct: GST (with Prescission protease cleavage site) (N); made in house; host or cells: E. coli BL21(DE3)
T2 sequence (Q9NR56 1-382 isoform Q9NR56-5): as above
Description: Fluorescein-labeled (CUG)36 transcript (2 nM) was incubated first with aminoglycoside compound (10 or 50 μM) and then with excess amount of recombinant MBNL1 protein (100 nM). To calculate the fraction of CUG repeat RNA that remains bound to MBNL1 protein (“% bound CUG^exp”, vertical axis), results are expressed as the percentage of maximal fluorescence anisotropy in assays from which aminoglycosides were omitted. […] Values are the average +/−SD from three measurements.
Fluorescein-labeled (CUG)36 RNA (2 nM) was incubated with MBNL1 protein (100 nM) and anisotropy was measured at time points ranging from 1 to 90 minutes. Increasing values for fluorescence anisotropy indicate interaction of fluorescein-labeled (CUG)36 transcript with MBNL1 protein.
MBNL1 protein is known to bind CUG repeat RNAs that form a stable secondary structure (hairpin structure). Aminoglycoside antibiotics were examined to determine whether these compounds can inhibit the interaction of MBNL1 protein with CUG repeat RNA. Aminoglycosides were selected because they are known to bind structured RNA. […] To calculate the fraction of CUG repeat RNA that remains bound to MBNL1 protein (“% bound CUG^exp”, vertical axis), results are expressed as the percentage of maximal fluorescence anisotropy in assays from which aminoglycosides were omitted. […]

With “CAG25 morpholino: morpholino comprised entirely of CAG repeats, 25 nucleotides in length (antisense AGCAGCAGCAGCAGCAGCAGCAGCA; all phosphorodiamidate morpholino (PMO))” the SERCA1 alternative splicing [1] was “improved the defect of SERCA1 alternative splicing”, the “distribution of MBNL1 in tibialis anterior nuclei” value [2] was “more widely distributed throughout the nucleus” and the “myotonia severity (EMG)” value (HSA^LR transgenic mice; 3 weeks after injection) was “significant reduction of myotonia”. The “myotonia severity (EMG)” value (HSA^LR transgenic mice; 6 weeks after injection) was “significant reduction of myotonia”, the “inhibition of interaction of MBNL1-poly(CUG)^exp RNA in vitro” value [3] was “inhibits the interaction” and the “ClC-1 alternative splicing (exon 7a)” value [4] was “improved the alternative splicing of ClC-1”. The ZASP alternative splicing [5] was “improved regulation of alternative splicing for ZASP” and the “expression of ClC-1 chloride channel at the surface membrane” value (ClC-1 chloride channel) was “increased expression ClC-1 protein at the surface membrane”.

In the case of “PNA-CAG-15: peptide nucleic acid Nterm-CAGCAGCAGCAGCAG (all peptide nucleic acid (PNA))”, the “inhibition of interaction of (CUG)109 RNA with MBNL1 protein” value [6] is reported as “inhibit the interaction of (CUG)109 RNA with MBNL1 protein” and the “interaction with expanded CUG repeat hairpin structures (gel migration of (CUG)109 transcript)” value ((CUG)109 hairpins) is reported as “can invade (CUG)109 hairpins”.

In the case of neomycin, the “activity to inhibit formation of MBNL1-poly(CUG)^exp RNA-protein complexes” value [7] is reported as “highest activity” and the “inhibition of MBNL1 binding to CUG repeat RNA (% bound CUG^exp)” value [8] is reported as “strongest inhibition”.

For gentamicin, the “activity to inhibit formation of MBNL1-poly(CUG)^exp RNA-protein complexes” value [7] was “highest activity”.

In the case of “PNA-CAG-12: peptide nucleic acid Nterm-CAGCAGCAGCAG (all peptide nucleic acid (PNA))”, the “inhibition of interaction of (CUG)109 RNA with MBNL1 protein” value [6] is reported as “inhibit the interaction of (CUG)109 RNA with MBNL1 protein” and the “interaction with expanded CUG repeat hairpin structures (gel migration of (CUG)109 transcript)” value ((CUG)109 hairpins) is reported as “can invade (CUG)109 hairpins”.
